Data: publication PMC12111564, “Extended Family of Thiophosphoryl-Appended Pd(II) Pincer Complexes with a Deprotonated Amide Core: Synthesis and Biological Evaluation” (International Journal of Molecular Sciences, 2025)

Legend:
[1] = system: glioblastoma (U251); test: MTT cytotoxicity assay, U251; assay type: cell-based, human
Experimental: (§1) The cytotoxic activity of the complexes obtained was screened against several human solid and hematopoietic cancer cell lines using the conventional MTT assay. To evaluate their selectivity for cancerous over non-cancerous cells, analogous tests were performed with pseudonormal human embryonic kidney (HEK293) and breast epithelial (HBL100) cell lines.
(§2) The cytotoxicity of the compounds obtained was investigated on human colorectal carcinoma (HCT116), breast cancer (MCF7), prostate adenocarcinoma (PC3), glioblastoma (U251), ovarian adenocarcinoma (Scov3), chronic myelogenous leukemia (K562 and K562/iS9), multiple plasmacytoma (AMO1), and acute lymphoblastic leukemia (H9) cell lines, as well as human embryonic kidney (HEK293) and mammary epithelial (HBL100 and HBL100/Dox) cells used as non-cancerous cell lineages. All the cell lines were obtained from American Type Culture Collection (ATCC). The tested compounds were initially dissolved in DMSO. Cisplatin was obtained from a commercial source (as an infusion concentrate in natural saline solution). The experiments were performed using the conventional MTT assay (ICN Biomedicals, Eschwege, Germany) according to the previously published procedure.

[2] = system: ovarian adenocarcinoma (Scov3); test: MTT cytotoxicity assay, Scov3; assay type: cell-based, human
Experimental: as §1, §2

[3] = system: human colorectal carcinoma (HCT116); design: method as in PMID 37818804; conditions: MTT; read-out: IC50 ± SD, HCT116; cited from earlier work
[4] = system: breast cancer (MCF7); design: method as in PMID 37818804; conditions: MTT; read-out: IC50 ± SD, MCF7; cited from earlier work
[5] = system: prostate adenocarcinoma (PC3); design: method as in PMID 37818804; conditions: MTT; read-out: IC50 ± SD, PC3; cited from earlier work
[6] = system: human embryonic kidney (HEK293); design: method as in PMID 37818804; conditions: MTT; read-out: IC50 ± SD, HEK293; cited from earlier work
[7] = system: mammary epithelial cells HBL100; design: method as in PMID 37818804; conditions: MTT; read-out: IC50 ± SD, HBL100; cited from earlier work
[8] = system: doxorubicin-resistant mammary epithelial cells HBL100/Dox; conditions: MTT; read-out: IC50 ± SD, HBL100/Dox; cited from earlier work
[9] = system: chronic myelogenous leukemia (K562); design: method as in PMID 37818804; conditions: MTT; read-out: IC50 ± SD, K562; cited from earlier work
[10] = system: doxorubicin-resistant subline of chronic myelogenous leukemia cells (K562/iS9); conditions: MTT; read-out: IC50 ± SD, K562/iS9; cited from earlier work
[11] = system: multiple plasmacytoma (AMO1); design: method as in PMID 37818804; conditions: MTT; read-out: IC50 ± SD, AMO1; cited from earlier work
[12] = system: acute lymphoblastic leukemia (H9); design: method as in PMID 37818804; conditions: MTT; read-out: IC50 ± SD, H9; cited from earlier work

In the case of `O=C1c2cccc[n+]2[Pd-2]2([Cl])[S+]=P(c3ccccc3)(c3ccccc3)C(c3ccccc3)[N]12` (racemic) [Ia], the IC50 [1] is listed as 34 ± 4 µM, the IC50 [2] is listed as 30 ± 2 µM and the IC50 [3] is listed as 3 ± 0.5 µM. For the same compound, the IC50 [4] was 10 ± 2.5 µM, the IC50 [5] was 4 ± 0.4 µM and the IC50 [6] was 6.2 ± 0.5 µM. For the same compound, the IC50 [7] was 16 ± 0.5 µM, the IC50 [8] was 34 ± 4 µM and the IC50 [9] was 7.4 ± 0.4 µM. For the same compound, the IC50 [10] was 5.8 ± 1.2 µM, the IC50 [11] was 2.4 ± 0.3 µM and the IC50 [12] was 3.2 ± 0.4 µM.
